According to the NIST ThermoML archive (doi:10.1021/je900307z):
± gives the expanded uncertainty stated by the source.

How the values were obtained:
[1] = 101.33 kPa, Liquid; for viscosity: Capillary tube (Ostwald / Ubbelohde) method; for mass density: Vibrating tube method
[2] = molar heat capacity at constant pressure; details: 101.33 kPa, Liquid, Small sample (50 mg) DSC
[3] = refractive index (Na D-line) (dimensionless); details: 101.33 kPa, Liquid, Standard Abbe refractometry

| SMILES | viscosity ([1]; 293.15 K) [mPa·s] | mass density ([1]; 293.15 K) [kg/m3] | viscosity ([1]; 313.15 K) [mPa·s] | mass density ([1]; 313.15 K) [kg/m3] | molar heat capacity at constant pressure ([2]; 288.15 K) [J/K/mol] | molar heat capacity at constant pressure ([2]; 293.15 K) [J/K/mol] | molar heat capacity at constant pressure ([2]; 298.15 K) [J/K/mol] | molar heat capacity at constant pressure ([2]; 303.15 K) [J/K/mol] | molar heat capacity at constant pressure ([2]; 308.15 K) [J/K/mol] | molar heat capacity at constant pressure ([2]; 313.15 K) [J/K/mol] | molar heat capacity at constant pressure ([2]; 318.15 K) [J/K/mol] | molar heat capacity at constant pressure ([2]; 323.15 K) [J/K/mol] | refractive index ([3]; 293.15 K) | refractive index ([3]; 313.15 K) |
| --- | --- | --- | --- | --- | --- | --- | --- | --- | --- | --- | --- | --- | --- | --- |
| CCOC(=O)OCC [diethyl carbonate] | 0.817 ± 0.008 | 975.84 ± 0.3 | 0.623 ± 0.007 | 952.39 ± 0.3 | 210.2 ± 4.2 | 211.49 ± 4.2 | 212.46 ± 4.2 | 213.83 ± 4.3 | 214.89 ± 4.3 | 215.8 ± 4.3 | 218.55 ± 4.4 | 220.32 ± 4.4 | 1.3858 ± 0.0007 | 1.3764 ± 0.0007 |
| COC(=O)OC [dimethyl carbonate] | 0.629 ± 0.006 | 1069.8 ± 0.37 | 0.494 ± 0.005 | 1043.25 ± 0.35 | 165.51 ± 3.3 | 166.07 ± 3.3 | 167.1 ± 3.3 | 168.48 ± 3.4 | 169.72 ± 3.4 | 170.83 ± 3.4 | 172.18 ± 3.4 | 173.68 ± 3.5 | 1.3689 ± 0.0006 | 1.3604 ± 0.0006 |
| CC1COC(=O)O1 (configuration not stated) [4-methyl-1,3-dioxolan-2-one] | 2.778 ± 0.022 | 1204.66 ± 0.18 | 1.909 ± 0.017 | 1183.06 ± 0.17 | 166.28 ± 3.3 | 167.97 ± 3.4 | 169.48 ± 3.4 | 170.79 ± 3.4 | 172.22 ± 3.4 | 174.14 ± 3.5 | 175.87 ± 3.5 | 177.45 ± 3.5 | 1.4223 ± 0.0006 | 1.4149 ± 0.0006 |
